# Reference: US20050065166A1, “Substituted pyrimidines” (priority 2001, published 2005)
row,Compound,melting point [°C]
1,Cc1nc(S(=O)(=O)Cc2ccc(Cl)cc2)nc2c1CCCC2,151
2,Cc1nc([S+]([O-])Cc2ccc(Cl)cc2)nc2c1CCCC2 (stereo not drawn),127
3,Cc1nc(SCc2ccc(Cl)cc2)nc2c1CCCC2,48
